This note sets out measurements from the supplement of paper PMC11368000.

Some results are limits rather than exact numbers.

One test has as its system 1518 (donor line of iPSC-derived cardiomyocytes). The test is described as follows: POD (EC95) for loss of peak frequency (asystole) vs vehicle; higher = less potent (higher point of departure). Particulars: exposure time: 90 min. The method, then:
(§1)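 Human iPSC-derived cardiomyocytes from 16 donors were exposed for 90 min at 37 °C to each PFAS at 0.1, 1, 10 and 100 µM in 0.5% DMSO, 384-well plates. Kinetic Ca2+ flux (FLIPR) and Hoechst nuclei counts were normalised to vehicle wells and fitted with a hierarchical Bayesian Hill model to give donor-specific PODs: EC05 for beat-rate increase or decrease and for decay-to-rise ratio increase (QT proxy), EC95 for peak-frequency loss (asystole), EC10 for total cell number loss. 0.03 µM is the lower bound.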
`O=C(O)C=CC(F)(C(F)(F)F)C(F)(F)F` [3-(Perfluoroisopropyl)-2-propenoic_acid]: the POD vs vehicle was > 100 µM.
For `O=C(O)CCC(F)(F)C(F)(F)C(F)(F)C(F)(F)C(F)(F)C(F)(F)C(F)(F)F` [3-Perfluoroheptylpropanoic_acid], the POD vs vehicle is > 100 µM.
Turning to `O=C(O)CCC(F)(F)C(F)(F)C(F)(F)F` [3:3 Fluorotelomer carboxylic acid], the POD vs vehicle is > 100 µM.
In the case of `O=C(CC(=O)C(F)(F)C(F)(F)F)C(F)(F)F` [3H,3H-Perfluoro-2,4-hexanedione], the POD vs vehicle is > 100 µM.
The same measure, in the same setting: to `OCCC(F)(F)C(F)(F)C(F)(F)C(F)(F)F` [4:2 Fluorotelomer alcohol] belongs > 100 µM; to `O=S(=O)(O)CCC(F)(F)C(F)(F)C(F)(F)C(F)(F)F` [4:2 Fluorotelomer sulfonic acid], > 100 µM; to `OCC(F)(F)C(F)(F)C(F)(F)C(F)(F)C(F)(F)C(F)(F)F` [6:1 Fluorotelomer alcohol], > 100 µM.
The same measure, in the same setting: to `OCCC(F)(F)C(F)(F)C(F)(F)C(F)(F)C(F)(F)C(F)(F)F` [6:2 Fluorotelomer alcohol] belongs > 100 µM.
`O=S(=O)(O)CCC(F)(F)C(F)(F)C(F)(F)C(F)(F)C(F)(F)C(F)(F)F` [6:2 Fluorotelomer sulfonic acid]: the POD vs vehicle is > 100 µM.
The same measure, in the same setting: in the case of `OCCC(F)(F)C(F)(F)C(F)(F)C(F)(F)C(F)(F)C(F)(F)C(F)(F)C(F)(F)F` [8:2 Fluorotelomer alcohol] it was > 100 µM; in that of `CN(CCO)S(=O)(=O)C(F)(F)C(F)(F)C(F)(F)C(F)(F)C(F)(F)C(F)(F)C(F)(F)C(F)(F)F` [N-Methyl-N-(2-hydroxyethyl)perfluorooctanesulfonamide], > 100 µM.

The next test deals with 1083 (donor line of iPSC-derived cardiomyocytes). Described as above. Particulars: exposure time: 90 min. On the procedure: as §1
Regarding `NC(=O)C(F)(F)C(F)(F)C(F)(F)C(F)F`, the POD vs vehicle is > 100 µM.
On to `OCC(O)CC(F)(F)C(F)(F)C(F)(F)C(F)(F)C(F)(F)C(F)(F)C(F)(F)C(F)(F)F` (stereo not given) [1-(Perfluorofluorooctyl)propane-2,3-diol], for which the POD vs vehicle is > 100 µM.
`CC(O)C(F)(F)C(F)(F)F` (stereo not given) [1-Pentafluoroethylethanol]: the POD vs vehicle is > 100 µM.
As for `OCC(F)(F)C(F)(F)C(F)(F)C(F)F` [1H,1H,5H-Perfluoropentanol], the POD vs vehicle was > 100 µM.
With `O=S(=O)(OCC(F)(F)F)C(F)(F)C(F)(F)C(F)(F)C(F)(F)F` [2,2,2-Trifluoroethyl_perfluorobutanesulfonate], the POD vs vehicle was > 100 µM.
Take `O=C(O)C(F)(F)C(F)(F)C(F)F` [2,2,3,3,4,4-Hexafluorobutanoic_acid]: the POD vs vehicle is > 100 µM.
On the same count and under the same terms, to `NC(O)(C(F)(F)F)C(F)(F)F` [2-Aminohexafluoropropan-2-ol] belongs > 100 µM; to `O=C(O)CCC(F)(F)C(F)(F)C(F)(F)C(F)(F)C(F)(F)F` [2H,2H,3H,3H-Perfluorooctanoic_acid], > 100 µM.
Regarding `O=C(O)C=C(C(F)(F)F)C(F)(F)F` [3,3-Bis(trifluoromethyl)-2-propenoic_acid], the POD vs vehicle was > 100 µM.
In the case of `O=C(O)C=CC(F)(C(F)(F)F)C(F)(F)F` [3-(Perfluoroisopropyl)-2-propenoic_acid], the POD vs vehicle was > 100 µM.
Still for that read-out and setting: in the case of `O=C(O)CCC(F)(F)C(F)(F)C(F)(F)C(F)(F)C(F)(F)C(F)(F)C(F)(F)F` [3-Perfluoroheptylpropanoic_acid] it was > 100 µM.
Consider `O=C(O)CCC(F)(F)C(F)(F)C(F)(F)F` [3:3 Fluorotelomer carboxylic acid], for which the POD vs vehicle is > 100 µM.
Same read-out and setting: to `O=C(CC(=O)C(F)(F)C(F)(F)F)C(F)(F)F` [3H,3H-Perfluoro-2,4-hexanedione] belongs > 100 µM; to `OCCC(F)(F)C(F)(F)C(F)(F)C(F)(F)F` [4:2 Fluorotelomer alcohol], > 100 µM; to `O=S(=O)(O)CCC(F)(F)C(F)(F)C(F)(F)C(F)(F)F` [4:2 Fluorotelomer sulfonic acid], > 100 µM.
Still for that read-out and setting: in the case of `OCC(F)(F)C(F)(F)C(F)(F)C(F)(F)C(F)(F)C(F)(F)F` [6:1 Fluorotelomer alcohol] it was 84.3 µM; in that of `OCCC(F)(F)C(F)(F)C(F)(F)C(F)(F)C(F)(F)C(F)(F)F` [6:2 Fluorotelomer alcohol], > 100 µM.
For the molecule `O=S(=O)(O)CCC(F)(F)C(F)(F)C(F)(F)C(F)(F)C(F)(F)C(F)(F)F` [6:2 Fluorotelomer sulfonic acid], the POD vs vehicle is > 100 µM.
Regarding `OCCC(F)(F)C(F)(F)C(F)(F)C(F)(F)C(F)(F)C(F)(F)C(F)(F)C(F)(F)F` [8:2 Fluorotelomer alcohol], the POD vs vehicle was > 100 µM.
Same read-out and setting: in the case of `CN(CCO)S(=O)(=O)C(F)(F)C(F)(F)C(F)(F)C(F)(F)C(F)(F)C(F)(F)C(F)(F)C(F)(F)F` [N-Methyl-N-(2-hydroxyethyl)perfluorooctanesulfonamide] it was 65 µM.

A further test has as its system 20084 (donor line of iPSC-derived cardiomyocytes). Described as above. Particulars: exposure time: 90 min. On the procedure: as §1
For the molecule `NC(=O)C(F)(F)C(F)(F)C(F)(F)C(F)F`, the POD vs vehicle is > 100 µM.
The same measure, in the same setting: in the case of `OCC(O)CC(F)(F)C(F)(F)C(F)(F)C(F)(F)C(F)(F)C(F)(F)C(F)(F)C(F)(F)F` (stereo not given) [1-(Perfluorofluorooctyl)propane-2,3-diol] it was > 100 µM; in that of `CC(O)C(F)(F)C(F)(F)F` (stereo not given) [1-Pentafluoroethylethanol], > 100 µM; in that of `OCC(F)(F)C(F)(F)C(F)(F)C(F)F` [1H,1H,5H-Perfluoropentanol], > 100 µM.
With `O=S(=O)(OCC(F)(F)F)C(F)(F)C(F)(F)C(F)(F)C(F)(F)F` [2,2,2-Trifluoroethyl_perfluorobutanesulfonate], the POD vs vehicle is > 100 µM.
Same read-out and setting: in the case of `O=C(O)C(F)(F)C(F)(F)C(F)F` [2,2,3,3,4,4-Hexafluorobutanoic_acid] it was > 100 µM; in that of `NC(O)(C(F)(F)F)C(F)(F)F` [2-Aminohexafluoropropan-2-ol], > 100 µM; in that of `O=C(O)CCC(F)(F)C(F)(F)C(F)(F)C(F)(F)C(F)(F)F` [2H,2H,3H,3H-Perfluorooctanoic_acid], 66.4 µM.
`O=C(O)C=C(C(F)(F)F)C(F)(F)F` [3,3-Bis(trifluoromethyl)-2-propenoic_acid]: the POD vs vehicle is > 100 µM.
`O=C(O)C=CC(F)(C(F)(F)F)C(F)(F)F` [3-(Perfluoroisopropyl)-2-propenoic_acid]: the POD vs vehicle was > 100 µM.
As to `O=C(O)CCC(F)(F)C(F)(F)C(F)(F)C(F)(F)C(F)(F)C(F)(F)C(F)(F)F` [3-Perfluoroheptylpropanoic_acid], the POD vs vehicle was > 100 µM.
Still for that read-out and setting: to `O=C(O)CCC(F)(F)C(F)(F)C(F)(F)F` [3:3 Fluorotelomer carboxylic acid] belongs > 100 µM; to `O=C(CC(=O)C(F)(F)C(F)(F)F)C(F)(F)F` [3H,3H-Perfluoro-2,4-hexanedione], > 100 µM; to `OCCC(F)(F)C(F)(F)C(F)(F)C(F)(F)F` [4:2 Fluorotelomer alcohol], > 100 µM.
As to `O=S(=O)(O)CCC(F)(F)C(F)(F)C(F)(F)C(F)(F)F` [4:2 Fluorotelomer sulfonic acid], the POD vs vehicle was > 100 µM.
Turning to `OCC(F)(F)C(F)(F)C(F)(F)C(F)(F)C(F)(F)C(F)(F)F` [6:1 Fluorotelomer alcohol], the POD vs vehicle was > 100 µM.
As to `OCCC(F)(F)C(F)(F)C(F)(F)C(F)(F)C(F)(F)C(F)(F)F` [6:2 Fluorotelomer alcohol], the POD vs vehicle was > 100 µM.
Same read-out and setting: to `O=S(=O)(O)CCC(F)(F)C(F)(F)C(F)(F)C(F)(F)C(F)(F)C(F)(F)F` [6:2 Fluorotelomer sulfonic acid] belongs > 100 µM; to `OCCC(F)(F)C(F)(F)C(F)(F)C(F)(F)C(F)(F)C(F)(F)C(F)(F)C(F)(F)F` [8:2 Fluorotelomer alcohol], > 100 µM.
